Measured values taken from patent US9981909B2 (Janssen Pharmaceutica NV, priority 2008, dated 2018).

Columns and labels:
rat 5-HT7 receptor = rat 5-HT7 receptor (Rattus norvegicus (Rat), UniProt P32305); experiment: r5-HT7 binding assay, competitive radioligand binding with [3H]5-CT; details: rat 5-HT7, HEK-293 membranes
How it was run: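 For antagonism, cells expressing the rat receptor are pretreated with compound (10 min) and stimulated with 100 nM 5-CT (20 min). Lysates are assayed for cAMP by competitive immunoassay. Binding uses [3H]5-CT competition on HEK-293 membranes, giving Ki.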

human SERT = human SERT (Homo sapiens (Human), UniProt P31645); experiment: human SERT binding assay with [3H]-citalopram on HEK-293 membranes; details: read-out: hSERT binding Ki
Sequence of human SERT (P31645 whole entry): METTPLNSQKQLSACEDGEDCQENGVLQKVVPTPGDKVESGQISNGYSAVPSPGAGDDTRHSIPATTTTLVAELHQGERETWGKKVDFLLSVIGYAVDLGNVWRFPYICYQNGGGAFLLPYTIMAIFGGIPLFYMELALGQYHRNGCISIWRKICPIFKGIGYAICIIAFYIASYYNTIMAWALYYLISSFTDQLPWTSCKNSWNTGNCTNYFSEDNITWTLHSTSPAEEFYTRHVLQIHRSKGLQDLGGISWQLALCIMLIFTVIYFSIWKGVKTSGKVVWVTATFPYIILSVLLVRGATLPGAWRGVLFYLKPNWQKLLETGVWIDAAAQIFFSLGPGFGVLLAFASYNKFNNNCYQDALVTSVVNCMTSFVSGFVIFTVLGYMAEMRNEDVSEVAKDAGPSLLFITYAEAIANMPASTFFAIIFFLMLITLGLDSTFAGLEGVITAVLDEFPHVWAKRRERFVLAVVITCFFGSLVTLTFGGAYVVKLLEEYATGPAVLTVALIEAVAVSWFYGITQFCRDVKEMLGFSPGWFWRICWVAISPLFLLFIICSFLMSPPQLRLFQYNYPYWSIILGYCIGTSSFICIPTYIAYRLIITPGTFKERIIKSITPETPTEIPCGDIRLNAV

h5HT2A = h5HT2A (Homo sapiens (Human), UniProt P28223); experiment: h5HT2A binding
Sequence of h5HT2A (P28223 whole entry): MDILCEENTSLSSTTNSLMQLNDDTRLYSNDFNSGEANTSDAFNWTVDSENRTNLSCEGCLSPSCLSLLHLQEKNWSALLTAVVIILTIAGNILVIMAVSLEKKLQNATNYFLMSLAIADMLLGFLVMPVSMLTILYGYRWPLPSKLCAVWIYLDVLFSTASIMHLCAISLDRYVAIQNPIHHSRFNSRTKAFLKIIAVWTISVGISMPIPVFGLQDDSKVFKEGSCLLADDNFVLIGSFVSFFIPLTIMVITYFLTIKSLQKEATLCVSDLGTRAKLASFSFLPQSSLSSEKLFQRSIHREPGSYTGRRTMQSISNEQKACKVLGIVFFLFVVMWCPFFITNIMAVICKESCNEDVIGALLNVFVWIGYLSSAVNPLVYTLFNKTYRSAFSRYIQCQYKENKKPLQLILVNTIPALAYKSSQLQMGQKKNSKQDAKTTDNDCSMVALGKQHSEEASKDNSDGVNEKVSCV

h5HT2B = h5HT2B (Homo sapiens (Human), UniProt P41595); experiment: h5HT2B binding
Sequence of h5HT2B (P41595 whole entry): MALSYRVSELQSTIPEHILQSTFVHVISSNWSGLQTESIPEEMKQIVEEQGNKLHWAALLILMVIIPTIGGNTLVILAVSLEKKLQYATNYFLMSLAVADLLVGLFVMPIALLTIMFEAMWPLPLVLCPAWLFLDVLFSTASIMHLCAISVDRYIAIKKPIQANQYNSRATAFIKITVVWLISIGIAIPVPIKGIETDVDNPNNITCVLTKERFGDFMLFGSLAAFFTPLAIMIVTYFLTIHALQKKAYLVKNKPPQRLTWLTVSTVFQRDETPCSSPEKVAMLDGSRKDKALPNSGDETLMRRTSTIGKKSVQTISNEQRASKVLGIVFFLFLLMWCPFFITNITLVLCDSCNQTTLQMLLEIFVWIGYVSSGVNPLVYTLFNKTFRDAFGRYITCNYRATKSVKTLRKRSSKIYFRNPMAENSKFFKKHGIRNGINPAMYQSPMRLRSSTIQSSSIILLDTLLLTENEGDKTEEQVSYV

h5HT2C = h5HT2C (Homo sapiens (Human), UniProt P28335); experiment: h5HT2C binding
Sequence of h5HT2C (P28335 33-458): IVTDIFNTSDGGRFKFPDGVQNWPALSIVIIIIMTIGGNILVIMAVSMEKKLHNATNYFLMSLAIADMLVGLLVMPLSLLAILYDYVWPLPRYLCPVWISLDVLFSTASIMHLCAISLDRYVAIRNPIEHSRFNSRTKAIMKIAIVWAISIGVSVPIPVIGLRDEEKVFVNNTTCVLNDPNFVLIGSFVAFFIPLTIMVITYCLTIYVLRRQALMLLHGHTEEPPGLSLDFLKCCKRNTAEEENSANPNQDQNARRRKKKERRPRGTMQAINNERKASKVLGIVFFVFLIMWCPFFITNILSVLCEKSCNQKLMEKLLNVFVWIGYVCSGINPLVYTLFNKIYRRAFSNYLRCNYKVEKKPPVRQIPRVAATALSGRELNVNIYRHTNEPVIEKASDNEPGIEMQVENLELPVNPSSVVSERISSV

Sequence of rat 5-HT7 receptor (P32305 1-435): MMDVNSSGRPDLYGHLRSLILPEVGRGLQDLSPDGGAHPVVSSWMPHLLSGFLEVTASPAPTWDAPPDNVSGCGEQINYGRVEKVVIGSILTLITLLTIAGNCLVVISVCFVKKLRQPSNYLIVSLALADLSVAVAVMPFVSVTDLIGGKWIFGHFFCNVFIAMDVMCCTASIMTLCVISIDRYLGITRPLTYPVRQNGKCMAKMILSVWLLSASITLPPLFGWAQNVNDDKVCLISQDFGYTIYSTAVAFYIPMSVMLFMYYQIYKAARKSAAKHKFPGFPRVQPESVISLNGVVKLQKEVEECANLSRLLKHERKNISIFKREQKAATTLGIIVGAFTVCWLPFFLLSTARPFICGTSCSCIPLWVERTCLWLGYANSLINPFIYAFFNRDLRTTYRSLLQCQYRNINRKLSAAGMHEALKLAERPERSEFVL

Ki (rat 5-HT7 receptor): 11 nM
Ki (human SERT): 44 nM
Ki (h5HT2A): 6 nM
Ki (h5HT2B): 17 nM
Ki (h5HT2C): 26 nM
Structure (SMILES): CC1(Oc2cc(Br)ccc2OCCc2ccccc2)CNC1 [Example 215, 3-(5-Bromo-2-phenethyloxy-phenoxy)-3-methyl-azetidine]
